Data reported in patent publication US9376420B2 (YUHAN CORPORATION, priority 2012, dated 2016).
pEC50: −log10 of the molar value.

Molecular target: T1, human LXRβ (Homo sapiens, UniProt P55055)
T1 construct: expressed in transfected cells; host or cells: HEK293 cells (ATCC CRL-1573), transient transfection with pFA-hLXRβ/GAL4 and pUAS
T1 sequence (P55055 222-460 limits assumed): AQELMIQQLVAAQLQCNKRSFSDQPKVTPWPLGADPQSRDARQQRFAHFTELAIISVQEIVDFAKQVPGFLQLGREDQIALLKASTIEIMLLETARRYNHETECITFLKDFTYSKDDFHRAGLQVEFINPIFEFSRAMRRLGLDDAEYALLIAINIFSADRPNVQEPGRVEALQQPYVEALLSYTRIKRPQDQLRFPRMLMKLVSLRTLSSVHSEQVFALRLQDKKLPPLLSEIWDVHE
Assay: Assay for Transcriptional Activity of LXRβ (GAL4-hLXRβ LBD luciferase reporter, transient transfection)
Format: cell-based
Conditions: HEK293 cells transfected with pFA-hLXRβ/GAL4 and pUAS, 24 hours; for Emax: fold value in comparison with the control (DMSO-treated group); for pEC50: increase of transcriptional activity of LXRβ, average of three independent tests
Summary of the method: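 HEK293 cells transiently co-transfected with GAL4-hLXRβ LBD and 5×GAL4-UAS luciferase reporter, treated 24 h at 37 °C with compounds over 9 points (0.01–50 μM, half-log). Luminescence read after lysis; EC50 from four-parameter fit, mean of three independent tests, with a known LXR agonist as positive control.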

What does the source list for `CS(=O)(=O)N1CC=C(c2ccnc(C3CC(C(F)(F)C(F)(F)F)=NN3c3ccc(F)cc3F)c2)CC1` (centres unmarked) [Example 180, 1-(2,4-difluoro-phenyl)-5-[4-(1-methanesulfonyl-1,2,3,6-tetrahydropyridin-4-yl)-pyridin-2-yl]-3-pentafluoroethyl-4,5-dihydro-1H-pyrazole]?
Emax: 118 fold; pEC50: 6.29

Which Emax does the source give for `CS(=O)(=O)N1CCN(c2ccnc(C3CC(C(F)(F)C(F)(F)F)=NN3c3ccc(F)cc3F)c2)CC1` (centres unmarked) [Example 183, 1-(2,4-difluoro-phenyl)-5-[4-(4-methanesulfonyl-piperazin-1-yl)-pyridin-2-yl]-3-pentafluoroethyl-4,5-dihydro-1H-pyrazole] here?
Its Emax is 79 fold.

What about the pEC50 of the same compound?
The pEC50 was 5.48.

For `O=S(=O)(C1CC1)N1CCN(c2ccnc(C3CC(C(F)(F)C(F)(F)F)=NN3c3ccc(F)cc3F)c2)CC1` (centres unmarked) [Example 184, 1-(2,4-difluoro-phenyl)-5-[4-(4-cyclopropanesulfonyl-piperazin-1-yl)-pyridin-2-yl]-3-pentafluoroethyl-4,5-dihydro-1H-pyrazole], which Emax is on record?
The Emax was 81 fold.

What about the pEC50 of the same compound?
The pEC50 was 5.55.

With `CS(=O)(=O)c1cccc(-c2cc(C3CC(C(F)(F)C(F)(F)F)=NN3c3ccc(F)cc3F)ccn2)c1` (centres unmarked) [Example 188, 1-(2,4-difluoro-phenyl)-5-[2-(3-methanesulfonyl-phenyl)-pyridin-4-yl]-3-pentafluoroethyl-4,5-dihydro-1H-pyrazole] as the compound, how does the Emax read?
Its Emax is 107 fold.

What about the pEC50 of the same compound?
The pEC50 was 6.52.

How did the Emax turn out when `CS(=O)(=O)c1ccc(-c2cc(C3CC(C(F)(F)C(F)(F)F)=NN3c3ccc(F)cc3F)ccn2)cn1` (centres unmarked) [Example 189, 1-(2,4-difluoro-phenyl)-5-[2-(6-methanesulfonyl-pyridin-3-yl)-pyridin-4-yl]-3-pentafluoroethyl-4,5-dihydro-1H-pyrazole] was run?
The Emax was 56 fold.

And the pEC50?
Its pEC50 is 5.57.

Which Emax does the source give for `CS(=O)(=O)N1CC=C(c2cc(C3CC(C(F)(F)C(F)(F)F)=NN3c3ccc(F)cc3F)ccn2)CC1` (centres unmarked) [Example 191, 1-(2,4-difluoro-phenyl)-5-[2-(1-methanesulfonyl-1,2,3,6-tetrahydropyridin-4-yl)-pyridin-4-yl]-3-pentafluoroethyl-4,5-dihydro-1H-pyrazole] here?
Its Emax is 50 fold.

What about the pEC50 of the same compound?
The pEC50 was 5.17.

For `CS(=O)(=O)N1CCN(c2cc(C3CC(C(F)(F)C(F)(F)F)=NN3c3ccc(F)cc3F)ccn2)CC1` (centres unmarked) [Example 194, 1-(2,4-difluoro-phenyl)-5-[2-(4-methanesulfonyl-piperazin-1-yl)-pyridin-4-yl]-3-pentafluoroethyl-4,5-dihydro-1H-pyrazole], which Emax is on record?
Its Emax is 95 fold.

And the pEC50?
The pEC50 was 5.44.

With `CS(=O)(=O)c1cccc(-c2cccc(N3N=C(C(F)(F)C(F)(F)F)CC3c3ccc(F)cc3F)c2)c1` (centres unmarked) [Example 206, 5-(2,4-difluoro-phenyl)-1-[3′-(methylsulfonyl)-biphenyl-3-yl]-3-pentafluoroethyl-4,5-dihydro-1H-pyrazole] as the compound, how does the Emax read?
The Emax was 87 fold.

What about the pEC50 of the same compound?
The pEC50 was 5.85.

How did the Emax turn out when `CS(=O)(=O)c1cncc(-c2cccc(N3N=C(C(F)(F)C(F)(F)F)CC3c3ccc(F)cc3F)c2)c1` (centres unmarked) [Example 207, 5-(2,4-difluoro-phenyl)-1-[3-(5-methanesulfonyl-pyridin-3-yl)-phenyl]-3-pentafluoroethyl-4,5-dihydro-1H-pyrazole] was run?
The Emax was 16 fold.

And the pEC50?
Its pEC50 is 5.21.

Which results are given for `CS(=O)(=O)c1cccc(-c2cccc(N3N=C(C(F)(F)C(F)(F)F)CC3c3ccc(F)cc3F)c2)n1` (centres unmarked) [Example 208, 5-(2,4-difluoro-phenyl)-1-[3-(6-methanesulfonyl-pyridin-2-yl)-phenyl]-3-pentafluoroethyl-4,5-dihydro-1H-pyrazole]?
Emax: 22 fold; pEC50: 5.22

`CN(C)S(=O)(=O)c1cccc(-c2cccc(N3N=C(C(F)(F)C(F)(F)F)CC3c3ccc(F)cc3F)c2)n1` (centres unmarked) [Example 209, 5-(2,4-difluoro-phenyl)-1-[3-(6-dimethylsulfamoyl-pyridin-2-yl)-phenyl]-3-pentafluoroethyl-4,5-dihydro-1H-pyrazole] was tested. Which Emax did it give?
The Emax was 20 fold.

And the pEC50?
The pEC50 was 5.29.

How did the Emax turn out when `CN(CCO)S(=O)(=O)c1cccc(-c2cccc(N3N=C(C(F)(F)C(F)(F)F)CC3c3ccc(F)cc3F)c2)c1` (centres unmarked) [Example 210, 5-(2,4-difluoro-phenyl)-1-{3′-[(2-hydroxy-ethyl)-methyl-sulfamoyl]-biphenyl-3-yl}-3-pentafluoroethyl-4,5-dihydro-1H-pyrazole] was run?
The Emax was 25 fold.

And the pEC50?
Its pEC50 is 5.35.

What does the source list for `CN(CCCS(=O)(=O)c1cccc(-c2cccc(N3N=C(C(F)(F)C(F)(F)F)CC3c3ccc(F)cc3F)c2)c1)C(=O)OC(C)(C)C` (centres unmarked) [Example 211, 5-(2,4-difluoro-phenyl)-1-{3′-[3-(N-BOC-N-methyl-amino)-propane-1-sulfonyl]-biphenyl-3-yl}-3-pentafluoroethyl-4,5-dihydro-1H-pyrazole]?
Emax: 29 fold; pEC50: 6.29

How did the Emax turn out when `CNCCCS(=O)(=O)c1cccc(-c2cccc(N3N=C(C(F)(F)C(F)(F)F)CC3c3ccc(F)cc3F)c2)c1.Cl` (centres unmarked) [Example 212, 5-(2,4-difluoro-phenyl)-1-[3′-(3-methylamino-propane-1-sulfonyl)-biphenyl-3-yl]-3-pentafluoroethyl-4,5-dihydro-1H-pyrazole hydrochloride] was run?
Its Emax is 9 fold.

What about the pEC50 of the same compound?
Its pEC50 is 5.79.

Which Emax does the source give for `CC(C)(C)OC(=O)N1CC=C(c2cccc(C3CC(C(O)(C(F)(F)F)C(F)(F)F)=NN3c3ccccc3Cl)c2)CC1` (centres unmarked) [Example 229, 1-(2-chloro-phenyl)-5-[3-(1-BOC-1,2,3,6-tetrahydropyridin-4-yl)-phenyl]-3-[di-(trifluoromethyl)-hydroxy-methyl]-4,5-dihydro-1H-pyrazole] here?
Its Emax is 126 fold.

And the pEC50?
Its pEC50 is 7.12.

Which results are given for `O=C(O)C(F)(F)F.OC(C1=NN(c2ccccc2Cl)C(c2cccc(C3=CCNCC3)c2)C1)(C(F)(F)F)C(F)(F)F` (centres unmarked) [Example 230, 1-(2-chloro-phenyl)-5-[3-(1,2,3,6-tetrahydropyridin-4-yl)-phenyl]-3-[di-(trifluoromethyl)-hydroxy-methyl]-4,5-dihydro-1H-pyrazole trifluoroacetate]?
Emax: 137 fold; pEC50: 7.44

`CC(=O)N1CC=C(c2cccc(C3CC(C(O)(C(F)(F)F)C(F)(F)F)=NN3c3ccccc3Cl)c2)CC1` (centres unmarked) [Example 231, 5-[3-(1-acetyl-1,2,3,6-tetrahydropyridin-4-yl)-phenyl]-1-(2-chloro-phenyl)-3-[di-(trifluoromethyl)-hydroxy-methyl]-4,5-dihydro-1H-pyrazole] was tested. Which Emax did it give?
Its Emax is 107 fold.

And the pEC50?
The pEC50 was 8.10.

For `O=C(CC1CCCC1)N1CC=C(c2cccc(C3CC(C(O)(C(F)(F)F)C(F)(F)F)=NN3c3ccccc3Cl)c2)CC1` (centres unmarked) [Example 232, 1-(2-chloro-phenyl)-5-{3-[1-(2-cyclopentyl-acetyl)-1,2,3,6-tetrahydropyridin-4-yl]-phenyl}-3-[di-(trifluoromethyl)-hydroxy-methyl]-4,5-dihydro-1H-pyrazole], which Emax is on record?
The Emax was 77 fold.

And the pEC50?
Its pEC50 is 7.15.

Which Emax does the source give for `O=C(CCC1CCCC1)N1CC=C(c2cccc(C3CC(C(O)(C(F)(F)F)C(F)(F)F)=NN3c3ccccc3Cl)c2)CC1` (centres unmarked) [Example 233, 1-(2-chloro-phenyl)-5-{3-[1-(3-cyclopentyl-propionyl)-1,2,3,6-tetrahydropyridin-4-yl]-phenyl}-3-[di-(trifluoromethyl)-hydroxy-methyl]-4,5-dihydro-1H-pyrazole] here?
The Emax was 72 fold.

What about the pEC50 of the same compound?
The pEC50 was 7.68.
